# Like-named read-outs stand apart in the source and are kept apart here.
# Key:
# [1] = target: T1, Hormone-sensitive lipase (HSL) (Homo sapiens, UniProt Q05469); assay type: biochemical
# T1 sequence (Q05469 1-1076): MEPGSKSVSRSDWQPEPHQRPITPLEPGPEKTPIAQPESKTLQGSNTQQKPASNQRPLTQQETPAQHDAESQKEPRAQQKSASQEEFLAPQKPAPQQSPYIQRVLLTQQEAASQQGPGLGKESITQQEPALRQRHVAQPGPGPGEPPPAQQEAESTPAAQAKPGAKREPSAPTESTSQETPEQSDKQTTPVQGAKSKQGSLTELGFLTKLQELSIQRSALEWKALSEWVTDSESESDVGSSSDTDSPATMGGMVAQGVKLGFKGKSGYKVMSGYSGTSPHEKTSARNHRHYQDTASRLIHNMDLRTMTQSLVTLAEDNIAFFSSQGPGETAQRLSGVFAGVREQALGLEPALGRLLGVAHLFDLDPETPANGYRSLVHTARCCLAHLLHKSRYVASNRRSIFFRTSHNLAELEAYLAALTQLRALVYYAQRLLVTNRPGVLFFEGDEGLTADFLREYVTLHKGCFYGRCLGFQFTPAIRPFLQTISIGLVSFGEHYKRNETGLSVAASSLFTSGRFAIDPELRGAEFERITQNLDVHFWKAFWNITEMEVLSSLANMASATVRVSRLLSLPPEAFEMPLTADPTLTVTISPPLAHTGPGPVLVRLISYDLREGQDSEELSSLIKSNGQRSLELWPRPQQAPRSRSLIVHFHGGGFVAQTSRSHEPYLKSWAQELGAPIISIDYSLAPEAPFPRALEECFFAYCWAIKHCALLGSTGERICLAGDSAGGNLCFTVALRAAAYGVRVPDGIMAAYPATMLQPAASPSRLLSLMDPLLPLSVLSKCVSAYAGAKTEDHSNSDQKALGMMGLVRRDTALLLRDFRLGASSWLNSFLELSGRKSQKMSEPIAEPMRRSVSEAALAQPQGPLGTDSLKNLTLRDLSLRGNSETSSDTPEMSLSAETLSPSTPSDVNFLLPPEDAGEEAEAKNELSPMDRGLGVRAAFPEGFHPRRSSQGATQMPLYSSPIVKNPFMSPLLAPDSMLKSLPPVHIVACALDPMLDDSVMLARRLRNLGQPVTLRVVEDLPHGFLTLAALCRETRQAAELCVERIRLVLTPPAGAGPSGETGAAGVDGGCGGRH
# Description: (§1) Materials. The Hormone-sensitive lipase was provided by Dr. Cecilia Holm, from Lund University Sweden or produced and purified by Novo Nordisk (NN) using the reagents and protocols used by Dr. Holm. The substrates used are: ^3H-labeled triolein (TO) from Amersham, Buckinghamshire, U.K. cat No. TRA191; 5–20 Ci/mmol dissolved in toluene, triolein (Sigma, Cat. No. T-1740), fluorochrome-labeled triacylglyceride (cis-octadec-9-enoic acid 2-[12-(7-nitrobenzo[1,2,5]oxadiazol-4-ylamino)dodecanoyloxy]-1-cis-octadec-9-enoyloxymethyl-ethyl ester) prepared by Novo Nordisk (NN) by conventional methods, and 1,3-(di[^3H]-stearin), 2-(PEG-Boitin)glycerol prepared in collaboration with Amersham Pharmacia Biotech, UK and described in WO 01/073442. Phosphatidyl choline (PC) and phosphatidyl inositol (PI) are from Sigma (St Luis Mo. cat. Nos. P-3556 and P-5954 respectively). All other reagents are of commercial grade and obtained from various commercial sources.
# 2898.2: This method is an enzyme assay based upon SPA (scintillation proximity assay) particles. The substrate, 1,3-(di-[^3H]-stearin), 2-(PEG-Biotin)-glycerol, is marked with ^3H in both fatty acid moieties in the tri-glyceride. The third moiety of the tri-glyceride is a PEG linked Biotin. The substrate binds through Biotin to streptavidin in the SPA particles and the proximity between the radioactive tritium in the stearic acid moiety and the SPA particle results in emission of light from the SPA particles. The assay is an on-bead assay where HSL degrades the substrate, where after ^3H-stearin acid is released from the bead. The amount of light emitted is proportional to the amount of substrate bound to the receptor. When a compound that inhibits the activity of HSL is present it results in a decrease in degradation of the substrate and thus an increase in the amount of light emitted and a concomitant increase in % Eff. % Eff(% Inhibition)=(S−S0Eff)/(SmaxEff−S0Eff)×100 Where S=signal in dpm., SOEff=no inhibitor added, SmaxEff=with maximum concentration of inhibitor. Results
# [2] = target: T1, Hormone-sensitive lipase (HSL); assay: biochemical; assay type: biochemical; conditions: for activity at 10 µM: read-out: Test 3180.2 HSL % ACTIVITY All
# Description: as §1
# 3180.2: Assay for determination of percent inhibition by compound at 10 μM concentration.
# A lipid emulsion with ^3H-Triolein and phospholipid is used as substrate with a standard cencentration of highly purified HSL. BSA is added as product receptor. The substrate is prepared as follows:
# 30 μl PC:PI (20 mg/ml solution of PC:PI 3:1 prepared in chloroform)+128 μl cold TO+15 μl ^3H-TO are mixed and then evaporated under a gentle stream of N2 followed by 20–30 minutes in a Speedvac to ensure the absence of residual solvent.
# Compound and HSL are incubated for 30 min at 25° C. before addition of substrate. Reaction is stopped after 30 min at 25° C. by adding a mixture of methanol, chloroform and heptane at high pH. Formed product is separated from substrate by phase separation.
# Results are given as percent activity relative to an un-inhibited sample (no compound).
# [3] = SPA on-bead assay, % Eff (% Inhibition)
# [4] = 10 μM concentration, percent activity relative to an un-inhibited sample (no compound)
Compound,"Test 2898.2 HSL2 % Inhibition All [1, 3] [%]","activity at 10 µM [2, 4] [%]",other results
1-Biphenyl-4-yl-3-methylamino-propenone-cyclohexyl-carbamic acid [Example 115],–,–,Test 2898.2 HSL2 % Inhibition All [1]: 73.6%; Test 3180.2 HSL % ACTIVITY All ([2]; 10 µM): 85%
"CN(C)C(=O)On1nnc2ccccc21 [Example 103, Dimethylcarbamic acid benzotriazol-1-yl ester]",101.4,–,activity at 10 µM [2]: 2%
"CC(C)C(Cl)=NOC(=O)NCc1ccc(F)cc1 [Example 112, N-(4-Fluorobenzylcarbamoyloxy)-isobutyrimidoyl chloride]",86,–,–
"CC(C)C(Cl)=NOC(=O)NCC(O)c1ccccc1 (stereo not drawn) [Example 113, N-(2-Hydroxy-2-phenylethylcarbamoyloxy)-isobutyrimidoyl chloride]",18.3,–,–
"O=C(Nc1cccn1-c1ncc(C(F)(F)F)cc1Cl)Oc1ccc(Cl)cc1 [Example 117, [1-(3-Chloro-5-trifluoromethyl-pyridin-2-yl)-1H-pyrrol-2-yl]-carbamic acid 4-chloro-phenyl ester]",–,2,–
"CCCCCCSc1nc(-c2ccc(C)cc2)nn1C(=O)N(C)c1ccccc1 [Example 118, N-Methyl-N-phenyl-5-hexylsulfanyl-3-p-tolyl-[1,2,4]triazole-1-carboxamide]",–,24,–
"CSc1nc(-c2ccc(Cl)cc2)nn1C(=O)N1CCOCC1 [Example 120, [3-(4-Chlorophenyl)-5-methylsulfanyl-[1,2,4]triazol-1-yl]-morpholin-4-yl-methanone]",–,40,–
"CSc1nc(-c2ccc3ccccc3c2)nn1C(=O)N(C)C [Example 121, N,N-Dimethyl-5-methylsulfanyl-3-naphthalen-2-yl-[1,2,4]triazole-1-carboxamide]",–,24,–
"CCSc1nc(-c2ccc(Cl)cc2)nn1C(=O)N(C)C [Example 122, N,N-Dimethyl-3-(4-chloro-phenyl)-5-ethylsulfanyl-[1,2,4]triazole-1-carboxamide]",–,14,–
"CSc1nc(-c2ccc(-c3ccccc3)cc2)nn1C(=O)N(C)C [Example 123, N,N-Dimethyl-3-biphenyl-4-yl-5-methylsulfanyl-[1,2,4]triazole-1-carboxamide]",–,22,–
"CSc1nc(-c2ccc(Cl)cc2)nn1C(=O)N(C)C [Example 124, N,N-Dimethyl-3-(4-chloro-phenyl)-5-methylsulfanyl-[1,2,4]triazole-1-carboxamide]",75.1,–,–
"Cc1ccc(CSc2nnc(OC(=O)N(C)C)n2-c2cccc(Cl)c2)cc1 [Example 133, Dimethyl carbamic acid 4-(3-chloro-phenyl)-5-(4-methyl-benzylsulfanyl)-4H-[1,2,4]triazol-3-yl ester]",15.8,–,–
"N-Methyl-N-phenethyl-5-ethyl-3-(4-chlorophenyl)-[1,2,4]triazole-1-carboxamide [Example 119]",–,–,"Test 3180.2 HSL % ACTIVITY All [2, 4]: 10%"

# Reference: patent US7067517B2 (priority 2001, dated 2006)
